These results are taken from US20100190788A1, “Amide derivatives as kinase inhitors” (priority 2005, published 2010).

The structures appear in SMILES notation. Where a name gives a salt, the structure may show the parent alone. Where only a bound is given, the exact number is not on record here.

T1 sequence (O75116 whole entry): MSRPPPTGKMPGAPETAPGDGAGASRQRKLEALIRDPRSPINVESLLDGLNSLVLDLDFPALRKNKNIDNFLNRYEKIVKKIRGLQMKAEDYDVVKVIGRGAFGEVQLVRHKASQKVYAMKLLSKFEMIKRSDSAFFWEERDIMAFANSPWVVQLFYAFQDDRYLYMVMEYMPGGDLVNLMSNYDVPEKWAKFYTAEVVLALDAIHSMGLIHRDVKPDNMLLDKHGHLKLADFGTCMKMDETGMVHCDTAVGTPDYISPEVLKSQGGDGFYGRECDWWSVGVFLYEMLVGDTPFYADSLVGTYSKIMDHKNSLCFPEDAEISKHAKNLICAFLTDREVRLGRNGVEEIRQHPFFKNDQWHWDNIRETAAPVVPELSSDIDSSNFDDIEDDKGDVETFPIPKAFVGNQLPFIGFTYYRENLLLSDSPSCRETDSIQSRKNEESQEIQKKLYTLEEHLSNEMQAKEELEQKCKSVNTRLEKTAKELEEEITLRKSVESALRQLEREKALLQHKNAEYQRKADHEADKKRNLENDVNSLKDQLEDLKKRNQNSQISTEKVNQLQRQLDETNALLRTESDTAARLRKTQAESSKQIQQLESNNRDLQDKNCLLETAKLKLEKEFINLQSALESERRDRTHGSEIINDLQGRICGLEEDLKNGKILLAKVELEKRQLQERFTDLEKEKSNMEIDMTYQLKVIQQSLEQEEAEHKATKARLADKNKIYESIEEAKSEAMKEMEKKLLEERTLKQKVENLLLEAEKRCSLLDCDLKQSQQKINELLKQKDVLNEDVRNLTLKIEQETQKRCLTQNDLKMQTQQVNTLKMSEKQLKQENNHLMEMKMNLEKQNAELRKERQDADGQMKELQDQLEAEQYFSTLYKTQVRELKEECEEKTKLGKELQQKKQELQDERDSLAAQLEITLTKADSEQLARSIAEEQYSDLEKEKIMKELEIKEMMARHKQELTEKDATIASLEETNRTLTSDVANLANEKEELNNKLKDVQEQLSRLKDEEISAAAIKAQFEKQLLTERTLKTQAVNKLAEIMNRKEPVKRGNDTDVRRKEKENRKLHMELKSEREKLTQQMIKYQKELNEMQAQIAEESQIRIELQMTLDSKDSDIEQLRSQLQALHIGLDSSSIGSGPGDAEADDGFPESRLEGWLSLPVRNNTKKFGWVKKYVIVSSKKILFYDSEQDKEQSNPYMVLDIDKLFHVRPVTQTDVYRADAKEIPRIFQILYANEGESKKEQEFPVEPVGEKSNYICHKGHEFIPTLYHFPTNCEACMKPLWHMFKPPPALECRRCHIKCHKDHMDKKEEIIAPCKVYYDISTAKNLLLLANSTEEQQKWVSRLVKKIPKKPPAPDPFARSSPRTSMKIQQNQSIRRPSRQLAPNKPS

The first assay has as its target T1, human ROCKα/ROCKII mix (Homo sapiens, UniProt O75116).
T1 construct: purchased Upstate Biotechnology 14-451
The experiment in a line: ROCK inhibition, fluorescence polarization (FP) assay with ROCK IMAP Kit. It counts as biochemical. The following applies: Table 1, compounds of Formula IV20. (In general: In fluorescence polarisation assays a small probe gives low polarisation when free and higher when bound to something large.)
On to `NC(C(=O)N1CCN(c2ccccc2)CC1)c1ccc(C(=O)Nc2ccncc2)cc1` (stereo not shown) [Compound 47, 4-[1-amino-2-oxo-2-(4-phenyl-piperzin-1-yl)-ethyl]-N-pyridin-4-yl-benzamide], for which the IC50 was 0.5 to 5 µM.
On the same count and under the same terms, under `CCC(NC(=O)C(N)c1ccc(C(=O)Nc2ccncc2)cc1)c1ccccc1` (stereo not shown) [Compound 4, 4-[amino-(1-phenyl-propylcarbamoyl)-methyl]-N-pyridin-4-yl-benzamide] stands below 0.5 µM; under `COCCNC(=O)C(N)c1ccc(C(=O)Nc2ccncc2)cc1` (stereo not shown) [Compound 39, 4-[amino-(2-methoxy-ethylcarbamoyl)-methyl]-N-pyridin-4-yl-benzamide], 0.5 to 5 µM; under `NC(C(=O)NCCn1ccnc1)c1ccc(C(=O)Nc2ccncc2)cc1` (stereo not shown) [Compound 19, 4-[amino-(2-imidazol-1-yl-ethylcarbamoyl)-methyl]-N-pyridin-4-yl-benzamide], 0.5 to 5 µM.
As for `COCC(C)NC(=O)C(N)c1ccc(C(=O)Nc2ccncc2)cc1` (stereo not shown) [Compound 43, 4-[amino-(2-methoxy-1-methyl-ethylcarbamoyl)-methyl]-N-pyridin-4-yl-benzamide], the IC50 was in the range of 0.5 to 5 µM.
`COc1ccc(CNC(=O)C(N)c2ccc(C(=O)Nc3ccncc3)cc2)cc1` (stereo not shown) [Compound 8, 4-[amino-(4-methoxy-benzylcarbamoyl)-methyl]-N-pyridin-4-yl-benzamide]: the IC50 is below 0.5 µM.
In the case of `NC(C(=O)NCC1CC1)c1ccc(C(=O)Nc2ccncc2)cc1` (stereo not shown) [Compound 25, 4-[amino-(cyclopropylmethyl-carbamoyl)-methyl]-N-pyridin-4-yl-benzamide], the IC50 is 0.5 to 5 µM.
Molecule `CC(C)N1CCN(C(=O)C(N)c2ccc(C(=O)Nc3ccncc3)cc2)CC1` (stereo not shown) [Compound 46, 4-[1-amino-2-(4-isopropyl-piperazin-1-yl)-2-oxo-ethyl]-N-pyridin-4-yl-benzamide] returned an IC50 of 0.5 to 5 µM.
For `NC(C(=O)N1CCC(c2ccccc2)CC1)c1ccc(C(=O)Nc2ccncc2)cc1` (stereo not shown) [Compound 28, 4-[1-amino-2-(4-phenyl-piperidin-1-yl)-2-oxo-ethyl]-N-pyridin-4-yl-benzamide], the IC50 fell in the range of 0.5 to 5 µM.
As for `NC(C(=O)NCCn1cccn1)c1ccc(C(=O)Nc2ccncc2)cc1` (stereo not shown) [Compound 18, 4-[amino-(2-pyrazol-1-yl-ethylcarbamoyl)-methyl]-N-pyridin-4-yl-benzamide], the IC50 lay in the range of 0.5 to 5 µM.
Still for that read-out and setting: under `NC(C(=O)NCc1ccco1)c1ccc(C(=O)Nc2ccncc2)cc1` (stereo not shown) [Compound 12, 4-{amino-[(furan-2-ylmethyl)-carbamoyl]-methyl}-N-pyridin-4-yl-benzamide] stands below 0.5 µM.

The assay is the same for the next values; noted with them: Table 2, compounds of Formula V20.
Molecule `NC(CNS(=O)(=O)c1cccc(Oc2ccccc2)c1)c1ccc(C(=O)Nc2ccncc2)cc1` (stereo not shown) [Compound 73, 4-[1-amino-2-(3-phenoxy-benzenesulfonylamino)-ethyl]-N-pyridin-4-yl-benzamide] showed an IC50 of 0.5 to 5 µM.
On the same count and under the same terms, the result for `NC(CNS(=O)(=O)c1cccc(-c2ccccc2)c1)c1ccc(C(=O)Nc2ccncc2)cc1` (stereo not shown) [Compound 75] reads 0.5 to 5 µM.
Still for that read-out and setting: under `NC(CNS(=O)(=O)c1ccccc1)c1ccc(C(=O)Nc2ccncc2)cc1` (stereo not shown) [Compound 61, 4-(1-amino-2-benzenesulfonylamino-ethyl)-N-pyridin-4-yl-benzamide] stands below 0.5 µM.
Same read-out and setting: the result for `NC(CNS(=O)(=O)c1cccc2nsnc12)c1ccc(C(=O)Nc2ccncc2)cc1` (stereo not shown) [Compound 82, 4-[1-amino-2-(benzo[1,2,5]-thiadiazole-4-sulfonylamino)-ethyl]-N-pyridin-4-yl-benzamide] reads below 0.5 µM; that for `CCS(=O)(=O)NCC(N)c1ccc(C(=O)Nc2ccncc2)cc1` (stereo not shown) [Compound 56], below 0.5 µM.

The same assay, now with this note: Table 3, compounds of Formula III20.
In the case of `NC(CC(=O)N1CCCC1c1ccc(Cl)cc1)c1ccc(C(=O)Nc2ccncc2)cc1` (stereo not shown) [Compound 90, 4-{1-amino-3-[2-(4-chloro-phenyl)-pyrrolidin-1-yl]-3-oxo-propyl}-N-pyridin-4-yl-benzamide], the IC50 is below 0.5 µM.
Molecule `NC(CC(=O)N1CCCCC1)c1ccc(C(=O)Nc2ccncc2)cc1` (stereo not shown) [Compound 107, 4-(1-amino-3-oxo-3-piperidin-1-yl-propyl)-N-pyridin-4-yl-benzamide] returned a half-inhibitory concentration (IC50) below 0.5 µM.
As for `NC(CC(=O)N1CCCCC1c1ccc(F)cc1)c1ccc(C(=O)Nc2ccncc2)cc1` (stereo not shown) [Compound 97, 4-{1-amino-3-[2-(4-fluoro-phenyl)-piperidin-1-yl]-3-oxo-propyl}-N-pyridin-4-yl-benzamide], the half-inhibitory concentration (IC50) is below 0.5 µM.
On the same count and under the same terms, the result for `COC(=O)c1ccc2c(c1)CCN(C(=O)CC(N)c1ccc(C(=O)Nc3ccncc3)cc1)C2` (stereo not shown) [Compound 126, 2-{3-amino-3-[4-(pyridin-4-ylcarbamoyl)-phenyl]-propionyl}-1,2,3,4-tetrahydro-isoquinoline-6-carboxylic acid methyl ester] reads 0.5 to 5 µM.
The same measure, in the same setting: the result for `NC(CC(=O)N1CC=C(c2ccc(F)cc2)CC1)c1ccc(C(=O)Nc2ccncc2)cc1` (stereo not shown) [Compound 118, 4-{1-amino-3[4-(4-fluoro-phenyl)-3,6-dihydro-2H-pyridin-1-yl]-3-oxo-propyl}-N-pyridin-4-yl-benzamide] reads below 0.5 µM; that for `CC1CN(C(=O)CC(N)c2ccc(C(=O)Nc3ccncc3)cc2)CC(C)O1` (stereo not shown) [Compound 113, 4-[1-amino-3-(2,6-dimethyl-morpholin-4-yl)-3-oxo-propyl]-N-pyridin-4-yl-benzamide], below 0.5 µM.

The assay is the same for the next values; noted with them: Table 4, compounds 132 to 156.
Regarding `NC(c1ccc(C(=O)Nc2ccncc2)cc1)C1CCCN1S(=O)(=O)c1ccccc1F` (stereo not shown) [Compound 136, 4-{Amino-[1-(2-fluoro-benzenesulfonyl)-pyrrolidin-2-yl]-methyl}-N-pyridin-4-yl-benzamide dihydrochloric acid salt], the IC50 lay in the range of 0.5 to 5 µM.
Same read-out and setting: the result for `NC(c1ccc(C(=O)Nc2ccncc2)cc1)C1CCCN1S(=O)(=O)c1ccccc1Cl` (stereo not shown) [Compound 133, 4-{Amino-[1-(2-chloro-benzenesulfonyl)-pyrrolidin-2-yl]-methyl}-N-pyridin-4-yl-benzamide dihydrochloric acid salt] reads 0.5 to 5 µM; that for `COc1ccc(S(=O)(=O)N(C)C[C@H](N)c2ccc(C(=O)Nc3ccncc3)cc2)cc1` [Compound 153, 4-{(R)1-Amino-2-[(4-methoxy-benzenesulfonyl)-methyl-amino]-ethyl}-N-pyridin-4-yl-benzamide dihydrochloric acid salt], 5 to 50 µM; that for `CN(CC(N)c1ccc(C(=O)Nc2ccncc2)cc1)S(=O)(=O)c1ccccc1` (stereo not shown) [Compound 139, 4-[1-Amino-2-(benzenesulfonyl-methyl-amino)-ethyl]-N-pyridin-4-yl-benzamide dihydrochloric acid salt], 0.5 to 5 µM.
For the molecule `N[C@H](CC(=O)N1CCC[C@H]1c1cccc(F)c1)c1ccc(C(=O)Nc2ccncc2)cc1` [Compound 150, 4-{(R)-1-Amino-3-[(S)-2-(3-fluoro-phenyl)-pyrrolidin-1-yl]-3-oxo-propyl}-N-pyridin-4-yl-benzamide dihydrochloric acid salt], the IC50 is below 0.5 µM.
On the same count and under the same terms, the result for `N[C@H](CC(=O)N1CCC[C@@H]1c1cccc(F)c1)c1ccc(C(=O)Nc2ccncc2)cc1` [Compound 149, 4-{(R)-1-Amino-3-[(R)-2-(3-fluoro-phenyl)-pyrrolidin-1-yl]-3-oxo-propyl}-N-pyridin-4-yl-benzamide dihydrochloric acid salt] reads below 0.5 µM.

The term IC50 denotes the midpoint of a concentration-inhibition curve. High values mean lower potency, low ones higher potency.
